The values below are quoted from earlier work in patent US12454714B2, “Monbretin A (MbA) synthesis using a heterologous nucleic acid(s) encoding A MbA pathway enzyme” (The University of British Columbia, priority 2018, dated 2025).

pKi: −log10 of the molar value. Several values for one entry are separate records, joined by “and”; a condition that tells them apart may be missing. Equal entries are not always repeated. Where two headings read alike, the source gives them in different places.

For data set [1], the target named is T1, human pancreatic α-amylase (HPA) (Homo sapiens, UniProt P04746).
T1 sequence (P04746 16-511): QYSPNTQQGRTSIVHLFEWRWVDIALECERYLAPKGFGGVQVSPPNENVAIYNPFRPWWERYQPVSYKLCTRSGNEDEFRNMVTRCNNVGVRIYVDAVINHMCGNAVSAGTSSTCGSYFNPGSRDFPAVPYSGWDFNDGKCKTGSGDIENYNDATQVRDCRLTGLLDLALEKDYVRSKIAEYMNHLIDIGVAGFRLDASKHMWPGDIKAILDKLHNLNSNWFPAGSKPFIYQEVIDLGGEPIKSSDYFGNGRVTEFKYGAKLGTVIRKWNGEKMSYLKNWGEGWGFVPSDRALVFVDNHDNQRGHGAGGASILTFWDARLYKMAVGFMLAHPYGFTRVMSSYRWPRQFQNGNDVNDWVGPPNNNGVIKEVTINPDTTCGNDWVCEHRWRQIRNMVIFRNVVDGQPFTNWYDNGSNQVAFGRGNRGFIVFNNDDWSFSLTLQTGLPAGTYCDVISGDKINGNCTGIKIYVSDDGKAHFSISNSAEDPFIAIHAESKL

The subject of a further data set is gut α-glucosidases. Particulars: selectivity versus HPA.
Data set [2] has as its system “Zucker diabetic fatty” rats.

The term pKi denotes the negative decadic logarithm of the Ki, by convention in mol/L. As for `CC1OC(Oc2c(-c3cc(O)c(O)c(O)c3)oc3cc(O)cc(O)c3c2=O)C(OC2OC(COC(=O)C=Cc3ccc(O)c(O)c3)C(O)C(O)C2O)C(O)C1O` [mini-MbA, myricetin 3-O-(6′-O-caffeoyl)-β-D-glucosyl 1,2-α-L-rhamnoside], in data set [1], the “HPA inhibition, in words” value is “potent and selective inhibitors”; the pKi was 7.03. Moreover, in data set [1] (listed as Mini-MbA), the pKi was 7.05.
With `CC1OC(Oc2c(-c3cc(O)c(O)c(O)c3)oc3cc(O)cc(O)c3c2=O)C(OC2OC(COC(=O)C=Cc3ccc(O)c(O)c3)C(O)C(O)C2OC2OC(CO)C(O)C(O)C2O)C(O)C1O` [MbA-XR^2, myricetin 3-O-(glucosyl-6′-O-caffeoyl)-1,2-β-D-glucosyl 1,2-α-L-rhamnoside], in data set [1], the negative-log Ki (pKi) was 7.38.
For `CC1OC(OC2COC(Oc3c(O)cc(-c4oc5cc(O)cc(O)c5c(=O)c4OC4OC(C)C(O)C(O)C4OC4OC(COC(=O)C=Cc5ccc(O)c(O)c5)C(O)C(O)C4OC4OC(CO)C(O)C(O)C4O)cc3O)C(O)C2O)C(O)C(O)C1O` [MbA, myricetin 3-O-(glucosyl-6′-O-caffeoyl)-1,2-β-D-glucosyl 1,2-α-L-rhamnoside 4′-O-α-L-rhamnosyl 1,4-β-D-xyloside], in data set [1], the “HPA inhibition, in words” value was “potent and selective inhibitors”; the pKi is 8.10 and 8.09. The “effect on the gut α-glucosidases” value with gut α-glucosidases is listed as “does not affect”. Moreover, the blood-glucose-lowering activity entry in data set [2] is reported as “effective blood-glucose-lowering”.
